Read-outs that look alike come from different tables or passages of the source.
Assays:
[1] = system: LTB4 production in fresh human whole blood; experiment: FLAP Whole Blood Assay (Test B), inhibition of LTB4 production; format: cell-based; conditions: then calcium ionophore A23187, LTB4 by EIA
Protocol: FLAP Whole Blood Assay (Test B)
Compounds were tested for the inhibition of LTB4 production in fresh human whole blood obtained by venapuncture using heparin to prevent clotting. 1.5 μL compounds or DMSO carrier were dispensed into the wells of a 96-well deep-well plate in 3-fold dilution series. 500 μL hepamised whole blood was then added followed by incubation at 37° C. for 30 min (method A) or 4 h (method B). 100 μL blood was subsequently transferred in triplicate to pre-dispensed 0.5 μL 2 mM calcium ionophore (calcimycin; A23187) in a second 96-well plate. Following incubation at 37° C. for 20 min, the assays were stopped by adding 10 μL of stop solution (100 mM EGTA, pH 7.4) and the plate was transferred to ice. The plate was centrifuged at 3000 rpm at 4° C. for 10 min and […] was transferred to a fresh 96 well plate containing 90 μL pre-dispensed EIA assay buffer (0.1 M phosphate buffer+0.1% BSA). LTB4 was then measured using reagents from a commercial EIA (Cayman Chemicals). LTB4 production was defined as the LTB4 level in the presence of a given concentration of test compound minus the LTB4 level in the presence of 50 nM 5-[[4-[(2S,4R)-4-hydroxy-2-methyl-tetrahydropyran-4-yl]-2-thienyl]sulfanyl]-1-methyl-indolin-2-one. (Preparation of 5-[[4-[(2S,4R)-4-hydroxy-2-methyl-tetrahydropyran-4-yl]-2-thienyl]sulfanyl]-1-methyl-indolin-2-one was described in Org. Process Res. Dev., 2005, 9, 555-569 or EP623614 B1). Inhibition of LTB4 production was defined as the LTB4 level in the presence of a given concentration of test compound expressed as a % of the LTB4 level in the presence of DMSO. IC50 values were determined by plotting % inhibition versus log compound concentration and using a one site dose response model.

[2] = molecular target: FLAP (human ALOX5AP expressed in COS-7 cell membranes) (Homo sapiens (Human), UniProt P20292); experiment: FLAP Binding Assay (Test A), competition binding with 3H-MK591 as tracer; conditions: competition with 3H-MK591 (2 nM), membranes from COS-7 cells expressing human ALOX5AP, 60 min at rt
Chain of FLAP (human ALOX5AP expressed in COS-7 cell membranes) (P20292 whole entry): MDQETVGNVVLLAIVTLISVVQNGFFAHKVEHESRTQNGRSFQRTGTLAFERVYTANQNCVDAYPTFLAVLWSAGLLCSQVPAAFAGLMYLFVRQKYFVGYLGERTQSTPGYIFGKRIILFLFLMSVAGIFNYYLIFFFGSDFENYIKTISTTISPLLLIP
Protocol: FLAP Binding Assay (Test A) Compounds were tested in a competition binding assay using ^3H-MK591 as tracer. […] Med. Chem. […] A 100,000×g pellet from COS-7 cells stably transfected with a plasmid expressing human ALOX5AP was the source of FLAP. […] Following filtration, filter plates were dried 12 h at RT (or 50° C. for 1 hour). 50 μL scintillant was then added, the filterplates were sealed and radioactivity was measured in a microbeta counter. Specific binding was defined as total binding minus non-specific binding. Total binding was defined as ^3H-MK591 bound to membranes in the absence of competitor, non-specific binding was defined as ^3H-MK591 in the presence of 0.1 mM MK-591. IC50 values were determined by plotting % inhibition versus log compound concentration and using a one site dose response model.

[3] = method B: compound incubated with human whole blood at 37° C. for 4 h, read-out: IC50 nM (method B)
[4] = 0.5 h, method A: compound incubated with human whole blood at 37° C. for 30 min, read-out: IC50 nM (method A)

| Structure (SMILES) | IC50 [1, 3] | IC50 [2] | IC50 [1, 4] |
| --- | --- | --- | --- |
| Cn1cc(NC(=O)C2CCCCC2C(=O)c2ccc(-c3ccn[nH]3)cc2F)c(C(N)=O)n1 (single isomer, unassigned) [Example 35, 4-[({(1R,2R or 1S,2S)-2-[2-Fluoro-4-(1H-pyrazol-5-yl)benzoyl]-cyclohexyl}carbonyl)amino]-1-methyl-1H-pyrazole-3-carboxamide] | 79 nM | 83 nM |  |
| Cc1cc(-c2ccc(C(=O)C3CCCCC3C(=O)Nc3nonc3C(N)=O)c(F)c2)[nH]n1 (single isomer, unassigned) [Example 40, 4-[({(1R,2R or 1S,2S)-2-[2-Fluoro-4-(3-methyl-1H-pyrazol-5-yl)benzoyl]cyclohexyl}carbonyl)amino]-1,2,5-oxadiazole-3-carboxamide] |  | 70 nM | 208 nM |
| Cc1onc(NC(=O)C2CCCCC2C(=O)c2ccc(-c3ccn[nH]3)cc2F)c1C(N)=O (single isomer, unassigned) [Example 41, 3-[({(1R,2R or 1S,2S)-2-[2-Fluoro-4-(1H-pyrazol-5-yl)benzoyl]-cyclohexyl}carbonyl)amino]-5-methyl-1,2-oxazole-4-carboxamide] | 272 nM | 160 nM |  |
| Cn1ncc(NC(=O)[C@@H]2CCCC[C@H]2C(=O)c2ccc(-c3cc[nH]n3)cc2)c1C(N)=O [Example 2, 1-Methyl-4-[({(1R,2R)-2-[4-(1H-pyrazol-3-yl)benzoyl]cyclohexyl}-carbonyl)amino]-1H-pyrazole-5-carboxamide] | 60 nM | 34 nM |  |
| Cc1cc(-c2ccc(C(=O)[C@@H]3CCCC[C@H]3C(=O)Nc3cn[nH]c3)cc2)[nH]n1 [Example 6, (1R,2R)-2-[4-(3-Methyl-1H-pyrazol-5-yl)benzoyl]-N-(1H-pyrazol-4-yl)cyclohexanecarboxamide] | 380 nM | 57 nM |  |
| Cn1ncc(NC(=O)[C@@H]2CCCC[C@H]2C(=O)c2ccc(-c3ccn[nH]3)cc2)c1S(C)(=O)=O [Example 8, (1R,2R)—N-[1-Methyl-5-(methylsulfonyl)-1H-pyrazol-4-yl]-2-[4-(1H-pyrazol-5-yl)benzoyl]cyclohexanecarboxamide] | 35 nM | 45 nM |  |
| Cc1cc(-c2ccc(C(=O)[C@@H]3CCCC[C@H]3C(=O)Nc3cn(C)nc3S(N)(=O)=O)cc2)[nH]n1 [Example 10, (1R,2R)-2-[4-(3-Methyl-1H-pyrazol-5-yl)benzoyl]-N-(1-methyl-3-sulfamoyl-1H-pyrazol-4-yl)cyclohexanecarboxamide] | 340 nM | 270 nM |  |
| Cc1cc(-c2ccc(C(=O)[C@@H]3CCCC[C@H]3C(=O)Nc3cnn4c3OCC4)cc2)[nH]n1 [Example 11, (1R,2R)—N-(2,3-Dihydropyrazolo[5,1-b][1,3]oxazol-7-yl)-2-[4-(3-methyl-1H-pyrazol-5-yl)benzoyl]cyclohexanecarboxamide] | 140 nM | 82 nM |  |
| CCn1ncc(NC(=O)[C@@H]2CCCC[C@H]2C(=O)c2ccc(-c3cc(C)n[nH]3)cc2)c1C(N)=O [Example 19, 1-Ethyl-4-[({(1R,2R)-2-[4-(3-methyl-1H-pyrazol-5-yl)benzoyl]-cyclohexyl}carbonyl)amino]-1H-pyrazole-5-carboxamide] | 80 nM | 29 nM |  |
| CNC(=O)c1c(NC(=O)[C@@H]2CCCC[C@H]2C(=O)c2ccc(-c3cc(C)[nH]n3)cc2)cnn1C [Example 21, N,1-Dimethyl-4-[({(1R,2R)-2-[4-(5-methyl-1H-pyrazol-3-yl)benzoyl]-cyclohexyl}carbonyl)amino]-1H-pyrazole-5-carboxamide] |  | 230 nM | 360 nM |
| NC(=O)c1[nH]ncc1NC(=O)[C@@H]1CCCC[C@H]1C(=O)c1ccc(-c2ccn[nH]2)cc1 [Example 23, 4-[({(1R,2R)-2-[4-(1H-Pyrazol-5-yl)benzoyl]cyclohexyl}carbonyl)amino]-1H-pyrazole-5-carboxamide] | 130 nM | 35 nM |  |
| Cn1cc(NC(=O)[C@@H]2CCCC[C@H]2C(=O)c2ccc(-c3ccn[nH]3)cc2)c(S(N)(=O)=O)n1 [Example 26, (1R,2R)—N-(1-Methyl-3-sulfamoyl-1H-pyrazol-4-yl)-2-[4-(1H-pyrazol-5-yl)benzoyl]cyclohexanecarboxamide] | 250 nM | 290 nM |  |

These reach a lower IC50 [2]. Values come first.

| IC50 [1, 3] | IC50 [2] | IC50 [1, 4] | Structure (SMILES) |
| --- | --- | --- | --- |
| 40 nM | 27 nM |  | Cc1cc(-c2ccc(C(=O)C3CCCCC3C(=O)Nc3cnn(C)c3C(N)=O)c(F)c2)[nH]n1 (single isomer, unassigned) [Example 37, 4-[({(1R,2R or 1S,2S)-2-[2-Fluoro-4-(3-methyl-1H-pyrazol-5-yl)benzoyl]-cyclohexyl}carbonyl)amino]-1-methyl-1H-pyrazole-5-carboxamide] |
| 69 nM | 20 nM |  | Cc1cc(-c2ccc(C(=O)C3CCCCC3C(=O)Nc3cn[nH]c3C(N)=O)c(F)c2)[nH]n1 (single isomer, unassigned) [Example 38, 4-[({(1R,2R or 1S,2S)-2-[2-Fluoro-4-(3-methyl-1H-pyrazol-5-yl)benzoyl]cyclohexyl}carbonyl)amino]-1H-pyrazole-5-carboxamide] |
| 34 nM | 9 nM |  | Cc1cc(-c2ccc(C(=O)C3CCCCC3C(=O)Nc3cnn4c3C(=O)NCC4)c(F)c2)[nH]n1 (single isomer, unassigned) [Example 39, (1R,2R or 1S,2S)-2-[2-Fluoro-4-(3-methyl-1H-pyrazol-5-yl)benzoyl]-N-(4-oxo-4,5,6,7-tetrahydropyrazolo[1,5-a]pyrazin-3-yl)cyclohexanecarboxamide] |
| 40 nM | 6.3 nM |  | Cc1cc(-c2ccc(C(=O)[C@@H]3CCCC[C@H]3C(=O)Nc3cnn4c3C(=O)NCC4)cc2)[nH]n1 [Example 7, (1R,2R)-2-[4-(3-Methyl-1H-pyrazol-5-yl)benzoyl]-N-(4-oxo-4,5,6,7-tetrahydropyrazolo[1,5-a]pyrazin-3-yl)cyclohexanecarboxamide] |
| 28 nM | 8.6 nM |  | Cc1cc(-c2ccc(C(=O)[C@@H]3CCCC[C@H]3C(=O)Nc3cn[nH]c3C(F)F)cc2)n[nH]1 [Example 15, (1R,2R)—N-[5-(Difluoromethyl)-1H-pyrazol-4-yl]-2-[4-(5-methyl-1H-pyrazol-3-yl)benzoyl]cyclohexanecarboxamide] |
| 41 nM | 22 nM |  | Cc1cc(-c2ccc(C(=O)[C@@H]3CCCC[C@H]3C(=O)Nc3cnn4c3C(=O)N(C)CC4)cc2)n[nH]1 [Example 16, (1R,2R)—N-(5-Methyl-4-oxo-4,5,6,7-tetrahydropyrazolo[1,5-a]pyrazin-3-yl)-2-[4-(5-methyl-1H-pyrazol-3-yl)benzoyl]cyclohexanecarboxamide] |
| 18 nM | 20 nM |  | CN1CCn2ncc(NC(=O)[C@@H]3CCCC[C@H]3C(=O)c3ccc(-c4cc[nH]n4)cc3)c2C1=O [Example 17, (1R,2R)—N-(5-Methyl-4-oxo-4,5,6,7-tetrahydropyrazolo[1,5-a]pyrazin-3-yl)-2-[4-(1H-pyrazol-3-yl)benzoyl]cyclohexanecarboxamide] |
| 740 nM | 24 nM |  | Cc1cc(-c2ccc(C(=O)[C@@H]3CCCC[C@H]3C(=O)Nc3c(C(N)=O)n[nH]c3C)cc2)[nH]n1 [Example 22, 5-Methyl-4-[({(1R,2R)-2-[4-(3-methyl-1H-pyrazol-5-yl)benzoyl]-cyclohexyl}carbonyl)amino]-1H-pyrazole-3-carboxamide] |
| 18 nM | 8.1 nM |  | O=C1NCCn2ncc(NC(=O)[C@@H]3CCCC[C@H]3C(=O)c3ccc(-c4ccn[nH]4)cc3)c21 [Example 24, (1R,2R)—N-(4-Oxo-4,5,6,7-tetrahydropyrazolo[1,5-a]pyrazin-3-yl)-2-[4-(1H-pyrazol-5-yl)benzoyl]cyclohexanecarboxamide] |
| 210 nM | 25 nM |  | CNS(=O)(=O)c1c(NC(=O)[C@@H]2CCCC[C@H]2C(=O)c2ccc(-c3cc(C)n[nH]3)cc2)cnn1C [Example 25, (1R,2R)—N-[1-Methyl-5-(methylsulfamoyl)-1H-pyrazol-4-yl]-2-[4-(3-methyl-1H-pyrazol-5-yl)benzoyl]cyclohexanecarboxamide] |
